From patent US20250188062A1, “TRIAZINE COMPOUNDS AND METHODS OF MAKING AND USING THE SAME” (Athos Therapeutics, Inc., priority 2021, published 2025)

What was measured:
JMJD3 = JMJD3 (Homo sapiens, UniProt O15054); test: JMJD3 binding assay (Kd, affinity beads, qPCR readout); settings: 11-point 3-fold dilution series, 0.9% DMSO, room temperature 1 hour; read-out: JMJD3 Affinity (binding constant, Kd)
Procedure: Test compounds were prepared as 111X stocks in 100% DMSO. Kd values are determined using an 11-point 3-fold compound dilution series with three DMSO control points. All compounds for Kd measurements were distributed by acoustic transfer (non-contact dispensing) in 100% DMSO. The compounds were then diluted directly into the assays such that the final concentration of DMSO was 0.9%. All reactions were performed in polypropylene 384-well plate. Each was a final volume of 0.02 ml. The assay plates were incubated at room temperature with shaking for 1 hour and the affinity beads were washed with wash buffer (lx PBS, 0.05% Tween 20). The beads were then re-suspended in elution buffer (lx PBS, 0.05% Tween 20, 0.5 μM non-biotinylated affinity ligand) and incubated at room temperature with shaking for 30 minutes. The kinase concentration in the eluates was measured by qPCR. Binding constants are calculated with a standard dose-response curve using the Hill equation:
The Hill Slope was set to −1. Curves were fitted using a non-linear least square fit with the Levenberg-Marquardt algorithm. The binding data is summarized in Table 2 where A is less than 100 nM, B is 100 to 500 nM, and C is greater than 500 nM.

THP-1 human monocytes [1] = test: TNF-alpha ELISA (Quantikine) in LPS-treated THP-1 cells; assay type: cell-based; settings: 1 μM, 4 hrs before LPS 50 ng/ml; PMA 25 nM; ELISA of supernatants; FIG. 4A-C, p<0.05 / p<0.01
Procedure: THP-1 cells were grown to confluence and plated in 6-well plates. PMA (25 nM) was added to the medium and replaced with non-PMA containing medium 24 hrs later. ATH compounds (1 μM) or vehicle (0.1% DMSO) were added and allowed to incubate. After 4 hrs LPS (50 ng/ml) was added without replacement of the medium and supernatants were collected after 4 and […]. Media were placed on ice for cytokine detection using ELISA (Quantikine, R&D Systems).
JMJD3 inhibitors Compound 89, Compound 91 (FIG. 4A, p<005), Compound 97, Compound 92, Compound 93 (FIG. 4B, p<0.01), and Compound 94 (FIG. 4C, p<0.01) show suppression of TNF-alpha (TNFA) expression after LPS (lipopolysaccharide) treatment, in THP-1 human monocytes (FIG. 4A-C, p<0.05 for both).

Naïve CD4+ T human cells = test: Cellular assay for FoxP3 induction activity (qPCR of FoxP3 mRNA); assay type: cell-based; settings: CD4+ T cells activated with anti-CD3, IL-2 and TGF-β for 5 days; FoxP3 mRNA by qPCR on day 5; FIG. 3
Procedure: CD4+CD25+FOXP3+ regulatory T cells (Tregs) suppress pro-inflammatory cells and signals and are critical mediators of tolerance, inhibiting excessive inflammation and autoimmunity. Also, treatment of CD4+ T cells with interleukin 2 (IL-2) and transforming growth factor beta (TGF-β) signaling are important for FOXP3 induction and Treg formation.
Naïve CD4+ T human cells (cat. no 2W-200, Lonza) were cultured and activated with artificial antigen-presenting cells and soluble anti-CD3 (100 ng/ml) in the presence of IL-2 (300 U/ml) and TGF-β (10 ng/ml) for 5 days. On day 3, cells were transfected with an anti-sense RNA against JMJD3 (cat. No 1299001, Thermo) using Lipofectamine 2000 (cat. No 11668027, Thermo). On day 5, RNA was extracted and qPCR analysis was performed to evaluate FoxP3 mRNA levels by using the following primers: F: 5′-TCCACAACATGCGACCCCCTTTCA-3′ and R: 5′-ACAGCCCCCTTCTCGCTCTCCA-3′ having a 217 bp product. All JMJD3 inhibitors (99, 92, 93, 98, and 95) in CD4+ T cells induced 7-fold FoxP3 expression levels, thus moving towards differentiation and formation of Tregs. […] Thus, genetic or pharmacological inhibition of […] will result into FoxP3 activation and induction of Treg formation. Based on this evidence, JMJD3 inhibitors (99, 92, 93, 98, and 95)) could be used in autoimmune diseases where T-regulatory cells have therapeutic potential. There is increasing evidence and literature derived from human clinical studies (Arellano B et al., Regulatory T Cell-based Therapies for Autoimmunity, Discov Med, 22:73-80, 2016).

THP-1 human monocytes [2] = test: Cellular assay for anti-inflammatory properties: cytokine ELISA multiplex in LPS-stimulated PMA-differentiated THP-1 macrophages; assay type: cell-based; settings: 1 μM, 4 hours before 100 ng/mL LPS for 4 or 24 hours; cytokine protein in media vs LPS+PMA only
Procedure: The anti-inflammatory properties of five JMJD3 inhibitors (99, 92, 93, 98, and 95, in no particularly order) were evaluated in an immune cellular assay targeting key pro-inflammatory cytokines involved in the pathogenesis of multiple autoimmune disease.
Specifically, THP-1 human monocytes were grown in 6-well plates (RPMI 1640+10% FBS+1% P/S). After washing with PBS the THP-1 cells were differentiated into macrophages using 20 nM of phorbol 12-myristate 13-acetate (PMA) for 24 hrs. 99, 92, 93, 98, and 95) (1 μM) were added into the macrophages, which are incubated for 4 hours before the addition of 100 ng/mL lipopolysaccharide (LPS) for either 4 or 24 hours. Next, the macrophages are collected via centrifugation at 1.2K rpm for 5 min and use their media to evaluate cytokine protein levels by using the Bio-rad Cytokine ELISA multiplex assay (cat. No M5000031YV). The supernatants from macrophages treated only with only LPS+PMA were collected and used as negative controls.

JMJD3, sequence (O15054 whole entry, species assumed): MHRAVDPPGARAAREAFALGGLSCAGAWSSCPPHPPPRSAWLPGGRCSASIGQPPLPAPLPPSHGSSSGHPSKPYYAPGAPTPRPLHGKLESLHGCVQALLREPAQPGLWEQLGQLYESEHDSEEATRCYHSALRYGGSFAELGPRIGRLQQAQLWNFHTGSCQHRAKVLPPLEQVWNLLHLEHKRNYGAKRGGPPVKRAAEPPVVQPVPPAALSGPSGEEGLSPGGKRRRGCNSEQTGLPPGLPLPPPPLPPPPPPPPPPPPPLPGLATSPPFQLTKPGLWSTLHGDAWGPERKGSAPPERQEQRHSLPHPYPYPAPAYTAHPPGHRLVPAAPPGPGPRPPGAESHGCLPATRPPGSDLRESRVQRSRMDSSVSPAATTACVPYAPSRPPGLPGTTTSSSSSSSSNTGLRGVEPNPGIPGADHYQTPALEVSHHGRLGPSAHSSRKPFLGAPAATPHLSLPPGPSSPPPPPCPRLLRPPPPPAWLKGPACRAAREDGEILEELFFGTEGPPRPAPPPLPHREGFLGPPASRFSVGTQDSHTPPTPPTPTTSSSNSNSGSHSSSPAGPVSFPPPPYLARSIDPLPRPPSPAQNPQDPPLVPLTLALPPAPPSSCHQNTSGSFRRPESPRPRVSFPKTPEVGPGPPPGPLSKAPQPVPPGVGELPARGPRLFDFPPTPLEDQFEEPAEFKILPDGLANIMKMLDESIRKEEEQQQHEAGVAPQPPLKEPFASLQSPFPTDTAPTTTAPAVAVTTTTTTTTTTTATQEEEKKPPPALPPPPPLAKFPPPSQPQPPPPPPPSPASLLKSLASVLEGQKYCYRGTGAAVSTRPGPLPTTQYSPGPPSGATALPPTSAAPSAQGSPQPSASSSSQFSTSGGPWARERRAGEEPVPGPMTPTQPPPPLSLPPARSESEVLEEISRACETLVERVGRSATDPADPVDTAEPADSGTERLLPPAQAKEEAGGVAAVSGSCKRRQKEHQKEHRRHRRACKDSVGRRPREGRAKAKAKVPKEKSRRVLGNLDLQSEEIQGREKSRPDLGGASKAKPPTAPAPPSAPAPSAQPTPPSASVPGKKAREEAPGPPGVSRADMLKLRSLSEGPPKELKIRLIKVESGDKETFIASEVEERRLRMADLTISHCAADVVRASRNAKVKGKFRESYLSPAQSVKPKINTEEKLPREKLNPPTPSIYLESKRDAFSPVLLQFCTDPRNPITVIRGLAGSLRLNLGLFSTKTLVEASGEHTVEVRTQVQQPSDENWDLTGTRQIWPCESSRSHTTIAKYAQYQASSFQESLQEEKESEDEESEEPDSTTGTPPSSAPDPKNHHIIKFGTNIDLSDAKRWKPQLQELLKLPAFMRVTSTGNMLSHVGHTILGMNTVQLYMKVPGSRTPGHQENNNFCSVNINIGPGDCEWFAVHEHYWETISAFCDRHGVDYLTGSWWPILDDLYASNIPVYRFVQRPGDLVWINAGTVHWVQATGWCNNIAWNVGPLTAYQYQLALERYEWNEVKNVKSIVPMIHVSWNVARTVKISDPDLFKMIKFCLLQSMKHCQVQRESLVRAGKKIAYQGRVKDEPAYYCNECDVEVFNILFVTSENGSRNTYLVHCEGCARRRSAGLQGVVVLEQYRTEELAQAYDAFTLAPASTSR

SMILES: CCOC(=O)CCNc1nc(N2CCc3ccccc3CC2)nc(-n2cccn2)n1 [Compound 1, Ethyl 3-((4-(1H-pyrazol-1-yl)-6-(1,2,4,5-tetrahydro-3H-benzo[d]azepin-3-yl)-1,3,5-triazin-2-yl)amino)propanoate]
- Kd (JMJD3): < 100 nM

SMILES: CCOC(=O)CCNc1nc(-n2cccn2)nc(-n2cccn2)n1 [Compound 2, Ethyl 3-((4,6-di(1H-pyrazol-1-yl)-1,3,5-triazin-2-yl)amino)propanoate]
- Kd (JMJD3): 100 to 500 nM

SMILES: CCOC(=O)CCNc1nc(-n2cccn2)nc(-n2ccc3ccccc32)n1 [Compound 6, Ethyl 3-((4-(1H-indol-1-yl)-6-(1H-pyrazol-1-yl)-1,3,5-triazin-2-yl)amino)propanoate]
- Kd (JMJD3): < 100 nM

SMILES: CCOC(=O)CCNc1nc(-c2cc(F)cc(F)c2)nc(-n2cccn2)n1 [Compound 8, Ethyl 3-((4-(3,5-difluorophenyl)-6-(1H-pyrazol-1-yl)-1,3,5-triazin-2-yl)amino)propanoate]
- Kd (JMJD3): < 100 nM

SMILES: c1ccc2c(c1)ccn2-c1nc(N2CCNC3(COC3)C2)nc(-n2cccn2)n1 [Compound 60, 8-(4-(1H-Indol-1-yl)-6-(1H-pyrazol-1-yl)-1,3,5-triazin-2-yl)-2-oxa-5,8-diazaspiro[3.5]nonane]
- Kd (JMJD3): < 100 nM

SMILES: CN1CCN(c2nc(-c3cc(F)cc(F)c3)nc(-n3cccn3)n2)CC1 [Compound 80, 2-(3,5-Difluorophenyl)-4-(4-methylpiperazin-1-yl)-6-(1H-pyrazol-1-yl)-1,3,5-triazine]
- Kd (JMJD3): 100 to 500 nM

SMILES: COCCNc1nc(-n2cccn2)nc(-n2ccc3ccccc32)n1 [Compound 89, 4-(1H-indol-1-yl)-N-(2-methoxyethyl)-6-(1H-pyrazol-1-yl)-1,3,5-triazin-2-amine]
- Kd (JMJD3): < 100 nM
- suppression of TNF-alpha (TNFA) expression after LPS treatment (THP-1 human monocytes [1]): suppression

SMILES: c1ccc2c(c1)ccn2-c1nc(N2CCNCC2)nc(-n2cccn2)n1 [Compound 90, 1-(4-(Piperazin-1-yl)-6-(1H-pyrazol-1-yl)-1,3,5-triazin-2-yl)-1H-indole]
- Kd (JMJD3): 100 to 500 nM

SMILES: NC(=O)CCNc1nc(-n2cccn2)nc(-n2ccc3ccccc32)n1 [Compound 91, 3-((4-(1H-Indol-1-yl)-6-(1H-pyrazol-1-yl)-1,3,5-triazin-2-yl)amino)propanamide]
- Kd (JMJD3): 100 to 500 nM
- suppression of TNF-alpha (TNFA) expression after LPS treatment (THP-1 human monocytes [1]): suppression

SMILES: Fc1cc(F)cc(-c2nc(N3CCOCC3)nc(-n3cccn3)n2)c1 [Compound 92, 4-(4-(3,5-Difluorophenyl)-6-(1H-pyrazol-1-yl)-1,3,5-triazin-2-yl)morpholine]
- Kd (JMJD3): 100 to 500 nM
- suppression of TNF-alpha (TNFA) expression after LPS treatment (THP-1 human monocytes [1]): suppression
- FoxP3 expression levels (induction) (Naïve CD4+ T human cells): 7 fold
- suppression of TNF-alpha (TNFA) (THP-1 human monocytes [2]): suppression
- suppression of interleukin 1beta (IL1B) (THP-1 human monocytes [2]): suppression
- suppression of interleukin 5 (IL5) (THP-1 human monocytes [2]): suppression
- suppression of interleukin 6 (IL6) (THP-1 human monocytes [2]): suppression
- suppression of interleukin 8 (IL8) (THP-1 human monocytes [2]): suppression
- suppression of interleukin 13 (IL13) (THP-1 human monocytes [2]): suppression

SMILES: Fc1cc(F)cc(-c2nc(N3CCC3)nc(-n3cccn3)n2)c1 [Compound 93, 2-(Azetidin-1-yl)-4-(3,5-difluorophenyl)-6-(1H-pyrazol-1-yl)-1,3,5-triazine]
- Kd (JMJD3): < 100 nM
- suppression of TNF-alpha (TNFA) expression after LPS treatment (THP-1 human monocytes [1]): suppression
- FoxP3 expression levels (induction) (Naïve CD4+ T human cells): 7 fold
- suppression of TNF-alpha (TNFA) (THP-1 human monocytes [2]): suppression
- suppression of interleukin 1beta (IL1B) (THP-1 human monocytes [2]): suppression
- suppression of interleukin 5 (IL5) (THP-1 human monocytes [2]): suppression
- suppression of interleukin 6 (IL6) (THP-1 human monocytes [2]): suppression
- suppression of interleukin 8 (IL8) (THP-1 human monocytes [2]): suppression
- suppression of interleukin 13 (IL13) (THP-1 human monocytes [2]): suppression

SMILES: c1ccc2c(c1)ccn2-c1nc(N2CCOCC2)nc(-n2cccn2)n1 [Compound 94, 4-(4-(1H-Indol-1-yl)-6-(1H-pyrazol-1-yl)-1,3,5-triazin-2-yl)morpholine]
- Kd (JMJD3): 100 to 500 nM
- suppression of TNF-alpha (TNFA) expression after LPS treatment (THP-1 human monocytes [1]): suppression

SMILES: NC(=O)CCNc1nc(-c2cc(F)cc(F)c2)nc(-n2cccn2)n1 [Compound 96, 3-((4-(3,5-Difluorophenyl)-6-(1H-pyrazol-1-yl)-1,3,5-triazin-2-yl)amino)propanamide]
- Kd (JMJD3): 100 to 500 nM

SMILES: COCCCNc1nc(-n2cccn2)nc(-n2ccc3ccccc32)n1 [Compound 97, 4-(1H-Indol-1-yl)-N-(3-methoxypropyl)-6-(1H-pyrazol-1-yl)-1,3,5-triazin-2-amine]
- Kd (JMJD3): 100 to 500 nM
- suppression of TNF-alpha (TNFA) expression after LPS treatment (THP-1 human monocytes [1]): suppression

SMILES: COCNc1nc(-n2cccn2)nc(-n2ccc3ccccc32)n1 [Compound 98, 4-(1H-indol-1-yl)-N-(methoxymethyl)-6-(1H-pyrazol-1-yl)-1,3,5-triazin-2-amine]
- FoxP3 expression levels (induction) (Naïve CD4+ T human cells): 7 fold
- suppression of TNF-alpha (TNFA) (THP-1 human monocytes [2]): suppression
- suppression of interleukin 1beta (IL1B) (THP-1 human monocytes [2]): suppression
- suppression of interleukin 5 (IL5) (THP-1 human monocytes [2]): suppression
- suppression of interleukin 6 (IL6) (THP-1 human monocytes [2]): suppression
- suppression of interleukin 8 (IL8) (THP-1 human monocytes [2]): suppression
- suppression of interleukin 13 (IL13) (THP-1 human monocytes [2]): suppression

SMILES: Fc1cc(F)cc(-c2nc(N3CCNCC3)nc(-n3cccn3)n2)c1 [Compound 99, 2-(3,5-difluorophenyl)-4-(piperazin-1-yl)-6-(1H-pyrazol-1-yl)-1,3,5-triazine]
- FoxP3 expression levels (induction) (Naïve CD4+ T human cells): 7 fold
- suppression of TNF-alpha (TNFA) (THP-1 human monocytes [2]): suppression
- suppression of interleukin 1beta (IL1B) (THP-1 human monocytes [2]): suppression
- suppression of interleukin 5 (IL5) (THP-1 human monocytes [2]): suppression
- suppression of interleukin 6 (IL6) (THP-1 human monocytes [2]): suppression
- suppression of interleukin 8 (IL8) (THP-1 human monocytes [2]): suppression
- suppression of interleukin 13 (IL13) (THP-1 human monocytes [2]): suppression
